# Measurements published in patent US20110046217A1, “USE OF 2,2'-CYCLOLIGNANS FOR INDUCING, RESTORING OR STIMULATING THE PIGMENTATION OF THE SKIN, HAIR OR HAIRS” (priority 2007, published 2011).
# Values joined by “and” are separate entries in the source; they are usually repeats but may differ in a detail not shown here. Equal entries are not always repeated.
# Legend:
# B16 melanocytes [1] = assay: MTT test and morphological observations, viability of B16 melanocytes; type: cell-based; conditions: for % cell viability: Table 4; for MTT test, average / MTT test, single reading / viability (%): 72 h contact; for MTT (%): Table 2, plate 1
# B16 melanocytes [2] = assay: Melanin assay, synthesis of melanin by B16 melanocytes; type: cell-based; conditions: for melanin production in the melanocyte cultures: treated at non-toxic doses
# Method: The melanogenesis-stimulating effect of gomisin A was measured on B16 melanocyte cultures.
# For gomisin A, the following were determined: • after culturing for 10 days under standard conditions, in 24-well plates, in Promocell medium free of “phorbol myristate acetate” (PMA):
# the amount of melanin present in the cultures, by spectrophotometric measurement of the melanin produced, after alkaline extraction, relative to 100% of the control (the control corresponds to the test performed without test compound).
# The melanogenesis-stimulating effect of gomisin C was measured on B16 melanocyte cultures.
# For gomisin C, the following were determined: • after culturing for 10 days under standard conditions, in 24-well plates, in Promocell medium free of “phorbol myristate acetate” (PMA): […]
# [3] = tested on: Caucasian primary melanocytes; assay: Melanin produced in normal human melanocytes; type: cell-based; conditions: 30 μM, 4 days, in the presence of L-dopa (50 μM), vs control
# Method: The study was carried out on Caucasian primary melanocytes during culturing. The test and reference formulations were applied in the presence of L-dopa which is the substrate of tyrosinase (50 μM) (Sigma, D9628-5G) for 4 days, the culture medium having been renewed after 2 days. The product GPN000715 was applied at three different concentrations: 10 μM, 30 μM and 80 μM. An application of 100 nM of the reference element (MSH) was carried out, and also an application of 0.1 mM of arbutin. The untreated control cells (CTL) stayed in the culture medium.
# The melanocytes were seeded in 6-well plates at a cell density of +/−100 000 cells. One week after seeding the cells, the test and reference products were applied, in the presence of L-dopa. After 4 days of treatment, cell lysis was carried out using a solution of NaOH (1N) (Merck, 109956) over 24 hours, at 37° C. The cell lysates were then centrifuged for 10 minutes, then 120 μl of each lysate was transferred into a 96-well plate in order to read the absorbance at 450 nm. The melanin content of each sample was quantified by comparison with the absorbances from the standard curve made with synthetic melanin (Sigma, M8631-100MG), ranging from 0 to 100 μg/ml.
# FIG. 1 represents a quantification of the production of melanin by melanocytes, in a single layer, after 4 days of application in the presence of the test and reference elements. […]
# follicle (hair bulb) = assay: Pigmentation and survival of the hair follicle
# keratinocytes = assay: Phagocytic activity of the keratinocytes; type: cell-based
# melanocyte = assay: Formation of a dense dendritic network in the melanocyte; type: cell-based
compound,measurement,setting,value
"COc1cc2c(c(OC)c1OC)-c1c(cc3c(c1OC)OCO3)C[C@H](C)[C@](C)(O)[C@H]2OC(=O)c1ccccc1 [Gomisin C, gomisin C]",% cell viability,B16 melanocytes [1]; 0.4 μg/ml,102%
same,% cell viability,B16 melanocytes [1]; 2 μg/ml,97%
same,% cell viability,B16 melanocytes [1]; 8 μg/ml,101%
same,"MTT test, average",B16 melanocytes [1]; gomisin C 0.0002 %,2.783
same,"MTT test, single reading",B16 melanocytes [1]; gomisin C 0.0002 %,2.786 and 2.783 and 2.780
same,viability (%),B16 melanocytes [1]; gomisin C 0.0002 %,101%
same,"MTT test, average",B16 melanocytes [1]; gomisin C 0.0008 %,2.844
same,"MTT test, single reading",B16 melanocytes [1]; gomisin C 0.0008 %,2.834 and 2.824 and 2.873
same,viability (%),B16 melanocytes [1]; gomisin C 0.0008 %,103%
same,"MTT test, average",B16 melanocytes [1]; gomisin C 0.004 %,1.899
same,"MTT test, single reading",B16 melanocytes [1]; gomisin C 0.004 %,1.871 and 1.873 and 1.954
same,viability (%),B16 melanocytes [1]; gomisin C 0.004 %,69%
same,"MTT test, average",B16 melanocytes [1]; gomisin C 0.02 %,1.136
same,"MTT test, single reading",B16 melanocytes [1]; gomisin C 0.02 %,1.208 and 1.146 and 1.205
same,viability (%),B16 melanocytes [1]; gomisin C 0.02 %,43%
same,"MTT test, average",B16 melanocytes [1]; gomisin C 1E−06 %,2.811
same,"MTT test, single reading",B16 melanocytes [1]; gomisin C 1E−06 %,2.793 and 2.813 and 2.827
same,viability (%),B16 melanocytes [1]; gomisin C 1E−06 %,102%
same,"MTT test, average",B16 melanocytes [1]; gomisin C 2.56E−07 %,2.790
same,"MTT test, single reading",B16 melanocytes [1]; gomisin C 2.56E−07 %,2.786 and 2.781 and 2.804
same,viability (%),B16 melanocytes [1]; gomisin C 2.56E−07 %,101%
same,"MTT test, average",B16 melanocytes [1]; gomisin C 3E−05 %,2.801
same,"MTT test, single reading",B16 melanocytes [1]; gomisin C 3E−05 %,2.789 and 2.795 and 2.818
same,viability (%),B16 melanocytes [1]; gomisin C 3E−05 %,101%
same,"MTT test, average",B16 melanocytes [1]; gomisin C 6E−06 %,2.792
same,"MTT test, single reading",B16 melanocytes [1]; gomisin C 6E−06 %,2.778 and 2.796 and 2.801
same,viability (%),B16 melanocytes [1]; gomisin C 6E−06 %,101%
same,Melanin,"B16 melanocytes [2]; Table 4, 0.4 μg/ml",16.66 µg/mL
same,Melanin % Control,"B16 melanocytes [2]; Table 4, 0.4 μg/ml",103%
same,Melanin,"B16 melanocytes [2]; Table 4, 2 μg/ml",17.46 µg/mL
same,Melanin % Control,"B16 melanocytes [2]; Table 4, 2 μg/ml",108%
same,Melanin,"B16 melanocytes [2]; Table 4, 8 μg/ml",19.44 µg/mL
same,Melanin % Control,"B16 melanocytes [2]; Table 4, 8 μg/ml",121%
same,melanin production in the melanocyte cultures,B16 melanocytes [2],significant increase in melanin production
"CC(C)Cn1c(=O)n(C)c(=O)c2[nH]cnc21 [IBMX, reference compound]",MTT (%),B16 melanocytes [1]; 200 μM,99%
same,% cell viability,B16 melanocytes [1]; 8 μM,96%
same,% cell viability,B16 melanocytes [1]; 40 μM,94%
same,% cell viability,B16 melanocytes [1]; 200 μM,99%
same,Melanin,"B16 melanocytes [2]; Table 2, plate 1, 200 μM",173.77 µg/mL
same,Melanin % Control,"B16 melanocytes [2]; Table 2, plate 1, 200 μM",1261%
same,Melanin,"B16 melanocytes [2]; Table 4, 8 μM",18.88 µg/mL
same,Melanin % Control,"B16 melanocytes [2]; Table 4, 8 μM",117%
same,Melanin,"B16 melanocytes [2]; Table 4, 40 μM",25.91 µg/mL
same,Melanin % Control,"B16 melanocytes [2]; Table 4, 40 μM",161%
same,Melanin,"B16 melanocytes [2]; Table 4, 200 μM",90.45 µg/mL
same,Melanin % Control,"B16 melanocytes [2]; Table 4, 200 μM",561%
"COc1cc2c(c(OC)c1OC)-c1c(cc3c(c1OC)OCO3)C[C@H](C)[C@](C)(O)C2 [Gomisin A, gomisin A]",increase of the amount of melanin in normal human melanocytes,[3],~40%
same,degeneration and survival of the follicle,follicle (hair bulb),limits degeneration and increases the survival of the follicle
same,pigmentation of the follicle (hair bulb),follicle (hair bulb),substantially stimulates the pigmentation of the follicle
same,MTT (%),B16 melanocytes [1]; 0.0022 mg/ml,102%
same,MTT (%),B16 melanocytes [1]; 0.0067 mg/ml,99%
same,MTT (%),B16 melanocytes [1]; 0.02 mg/ml,102%
same,"MTT test, average",B16 melanocytes [1]; gomisin A 0.002 mg/ml,2.001
same,"MTT test, single reading",B16 melanocytes [1]; gomisin A 0.002 mg/ml,2.022 and 2.112 and 2.077 and 1.920 and 1.933 and 1.942
same,viability (%),B16 melanocytes [1]; gomisin A 0.002 mg/ml,105%
same,"MTT test, average",B16 melanocytes [1]; gomisin A 0.007 mg/ml,2.081
same,"MTT test, single reading",B16 melanocytes [1]; gomisin A 0.007 mg/ml,2.046 and 2.137 and 2.227 and 2.061 and 1.966
same,viability (%),B16 melanocytes [1]; gomisin A 0.007 mg/ml,109%
same,"MTT test, average",B16 melanocytes [1]; gomisin A 0.02 mg/ml,2.128
same,"MTT test, single reading",B16 melanocytes [1]; gomisin A 0.02 mg/ml,2.227 and 2.046 and 2.241 and 1.988 and 2.085 and 2.182
same,viability (%),B16 melanocytes [1]; gomisin A 0.02 mg/ml,112%
same,"MTT test, average",B16 melanocytes [1]; gomisin A 2E−04 mg/ml,1.850
same,"MTT test, single reading",B16 melanocytes [1]; gomisin A 2E−04 mg/ml,1.878 and 1.932 and 1.972 and 1.721 and 1.807 and 1.787
same,viability (%),B16 melanocytes [1]; gomisin A 2E−04 mg/ml,97%
same,"MTT test, average",B16 melanocytes [1]; gomisin A 3E−05 mg/ml,1.835
same,"MTT test, single reading",B16 melanocytes [1]; gomisin A 3E−05 mg/ml,1.961 and 1.784 and 1.853 and 1.764 and 1.910 and 1.740
same,viability (%),B16 melanocytes [1]; gomisin A 3E−05 mg/ml,96%
same,"MTT test, average",B16 melanocytes [1]; gomisin A 7E−04 mg/ml,1.974
same,"MTT test, single reading",B16 melanocytes [1]; gomisin A 7E−04 mg/ml,1.976 and 1.996 and 2.147 and 1.844 and 1.896 and 1.987
same,viability (%),B16 melanocytes [1]; gomisin A 7E−04 mg/ml,104%
same,"MTT test, average",B16 melanocytes [1]; gomisin A 8E−05 mg/ml,1.886
same,"MTT test, single reading",B16 melanocytes [1]; gomisin A 8E−05 mg/ml,1.964 and 1.891 and 1.965 and 1.899 and 1.829 and 1.770
same,viability (%),B16 melanocytes [1]; gomisin A 8E−05 mg/ml,99%
same,"MTT test, average",B16 melanocytes [1]; gomisin A 9.1E−06 mg/ml,1.910
same,"MTT test, single reading",B16 melanocytes [1]; gomisin A 9.1E−06 mg/ml,1.837 and 1.963 and 1.930 and 1.951 and 1.879 and 1.901
same,viability (%),B16 melanocytes [1]; gomisin A 9.1E−06 mg/ml,100%
same,Melanin,"B16 melanocytes [2]; Table 2, plate 1, 0.0022 mg/ml",16.62 µg/mL
same,Melanin % Control,"B16 melanocytes [2]; Table 2, plate 1, 0.0022 mg/ml",121%
same,Melanin,"B16 melanocytes [2]; Table 2, plate 1, 0.0067 mg/ml",22.66 µg/mL
same,Melanin % Control,"B16 melanocytes [2]; Table 2, plate 1, 0.0067 mg/ml",164%
same,Melanin,"B16 melanocytes [2]; Table 2, plate 1, 0.02 mg/ml",27.73 µg/mL
same,Melanin % Control,"B16 melanocytes [2]; Table 2, plate 1, 0.02 mg/ml",201%
same,melanin production in the melanocyte cultures,B16 melanocytes [2],significant increase in melanin production
same,phagocytic activity of the keratinocytes,keratinocytes,stimulating
same,formation of a dense dendritic network in the melanocyte,melanocyte,stimulating
